Experimental data as given in patent US7846902B2, “Dipeptide-comprising composition for oral administration” (Kyowa Hakko Bio Co., Ltd., priority 2005, dated 2010).
Peptide text beside a SMILES is read from it.

Settings: 37° C., 2 hours
Protocol: 10 μL of the resultant dipeptide solution was mixed with 4 μL of blood plasma or 4 μL of water, and was incubated at 37° C. for 2 hours. The mixture solution after incubation was applied to a TLC plate (manufactured by Merck Ltd.), and developed with a solution containing butanol (Kishida Chemical Co., Ltd.), acetic acid (Kishida Chemical Co., Ltd.) and water in a ratio of 2:1:1. A 1% ninhydrin solution was sprayed onto the mixture, which was then incubated at 80° C. for 5 minutes. Incidentally, the 1% ninhydrin solution was prepared by dissolving ninhydrin (Wako Pure Chemical Industries, Ltd.) in ethanol (Kishida Chemical Co., Ltd.).

TLC spots when mixed with water	SMILES
single spot alone	CC(C)[C@H](NC(=O)[C@H](C)N)C(=O)O [Alanyl-Valine, alanyl-valine] (H-Ala-Val-OH)
single spot alone	CC[C@H](C)[C@H](NC(=O)[C@H](C)N)C(=O)O [Alanyl-Isoleucine, alanyl-isoleucine] (H-Ala-Ile-OH)
single spot alone	CC(C)C[C@H](NC(=O)[C@H](C)N)C(=O)O [Alanyl-Leucine, alanyl-leucine] (H-Ala-Leu-OH)
